These results are taken from patent US20260193264A1, “BENZOYPARAZINE PYRAZINES AND THEIR USES” (FOGHORN THERAPEUTICS INC., priority 2022, published 2026).

Experiment [1] addresses T1, HiBiT-BRM fusion protein in stable HeLa cell line (Homo sapiens, UniProt P51531).
T1 construct: expressed in transfected cells
Briefly: HiBiT-BRM cell-based degradation assay (Nano-Glo HiBiT Lytic Detection, 24 h). Also noted: DC50: scale not given here. The conditions noted are these: HeLa HiBiT-BRM cells; for DC50: read-out: BRM HiBit Degradation IC50; for BRM HiBit Degradation Maximum (%): top dose 30 μM. In short, it runs like this:
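Percent degradation was scaled between DMSO-treated cells and cells given 2 μM of a known BRM/BRG1 degrader. Readout was NanoBiT luminescence after lytic detection. HeLa cells stably expressing HiBiT-BRM were dosed for 24 h, 10 points, 3-fold steps from 30 μM final, in duplicate.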
(In general: HiBiT is a short tag that completes a luciferase, so light tracks the accessible tagged protein.)

The target of experiment [2] is T2, HiBit-BRG1 fusion protein in stable HeLa cell line expressing HiBit-BRG1 and LgBit (Homo sapiens, UniProt P51532).
T2 construct: expressed in transfected cells
T2 sequence (P51532 whole entry, the tested form may be a part): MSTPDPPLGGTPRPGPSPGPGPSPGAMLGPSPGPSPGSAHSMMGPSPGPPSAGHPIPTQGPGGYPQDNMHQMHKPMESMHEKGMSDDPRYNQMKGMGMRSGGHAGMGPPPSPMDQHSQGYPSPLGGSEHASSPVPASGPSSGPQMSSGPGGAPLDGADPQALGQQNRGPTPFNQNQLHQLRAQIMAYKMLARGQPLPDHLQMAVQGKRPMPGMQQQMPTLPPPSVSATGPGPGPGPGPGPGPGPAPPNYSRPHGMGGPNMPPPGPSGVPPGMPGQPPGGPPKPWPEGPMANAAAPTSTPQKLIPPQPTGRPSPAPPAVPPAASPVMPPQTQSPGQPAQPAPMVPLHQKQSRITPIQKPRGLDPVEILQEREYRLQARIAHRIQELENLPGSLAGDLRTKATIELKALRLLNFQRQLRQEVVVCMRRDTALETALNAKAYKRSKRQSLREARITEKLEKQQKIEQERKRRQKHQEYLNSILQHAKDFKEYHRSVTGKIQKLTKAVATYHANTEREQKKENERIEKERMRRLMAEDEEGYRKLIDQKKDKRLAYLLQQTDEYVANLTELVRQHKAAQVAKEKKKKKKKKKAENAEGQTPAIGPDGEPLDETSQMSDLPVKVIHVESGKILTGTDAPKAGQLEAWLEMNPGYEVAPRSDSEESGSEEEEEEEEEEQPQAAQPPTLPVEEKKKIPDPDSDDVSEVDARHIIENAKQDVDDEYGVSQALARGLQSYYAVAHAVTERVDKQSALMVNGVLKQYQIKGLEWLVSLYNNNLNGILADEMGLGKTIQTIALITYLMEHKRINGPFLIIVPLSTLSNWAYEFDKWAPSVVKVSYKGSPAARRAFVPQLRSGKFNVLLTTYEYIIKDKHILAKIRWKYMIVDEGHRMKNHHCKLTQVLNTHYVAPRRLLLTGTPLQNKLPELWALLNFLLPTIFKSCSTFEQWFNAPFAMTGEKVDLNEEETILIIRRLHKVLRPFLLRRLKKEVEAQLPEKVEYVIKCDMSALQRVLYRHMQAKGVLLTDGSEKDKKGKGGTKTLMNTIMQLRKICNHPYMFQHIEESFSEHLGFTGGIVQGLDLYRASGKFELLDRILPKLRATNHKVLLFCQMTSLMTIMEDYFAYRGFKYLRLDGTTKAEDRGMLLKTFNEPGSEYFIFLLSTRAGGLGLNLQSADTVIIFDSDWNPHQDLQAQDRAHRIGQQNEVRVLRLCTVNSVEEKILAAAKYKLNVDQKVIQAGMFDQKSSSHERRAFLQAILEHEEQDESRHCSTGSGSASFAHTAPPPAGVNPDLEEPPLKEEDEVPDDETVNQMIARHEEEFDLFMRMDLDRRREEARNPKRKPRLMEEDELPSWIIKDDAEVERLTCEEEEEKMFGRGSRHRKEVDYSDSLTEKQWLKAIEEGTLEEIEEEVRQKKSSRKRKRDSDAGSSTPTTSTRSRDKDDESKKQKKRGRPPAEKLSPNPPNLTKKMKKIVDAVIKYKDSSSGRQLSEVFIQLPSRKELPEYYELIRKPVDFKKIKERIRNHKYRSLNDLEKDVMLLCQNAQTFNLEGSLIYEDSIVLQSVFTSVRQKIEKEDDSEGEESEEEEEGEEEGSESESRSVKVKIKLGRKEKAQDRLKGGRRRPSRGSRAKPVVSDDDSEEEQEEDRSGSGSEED
In words: HiBiT-BRG1 cell-based degradation assay (Nano-Glo HiBiT, 24 h). The conditions noted are these: HeLa HiBit-BRG1/LgBit cells; for DC50: read-out: BRMG1 HiBit Degradation IC50; for Dmax: top dose 30 μM, read-out: BRG1 HiBit Degradation Maximum (%). An outline of the steps: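 Degradation calculated from NanoBiT luminescence relative to DMSO-treated cells (high) and cells given 2 μM known BRM/BRG1 degrader (low). HeLa cells stably expressing HiBiT-BRG1 plus LgBiT were exposed to compound for 24 h before lytic HiBiT detection.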

T1 sequence (P51531 whole entry, the tested form may be a part): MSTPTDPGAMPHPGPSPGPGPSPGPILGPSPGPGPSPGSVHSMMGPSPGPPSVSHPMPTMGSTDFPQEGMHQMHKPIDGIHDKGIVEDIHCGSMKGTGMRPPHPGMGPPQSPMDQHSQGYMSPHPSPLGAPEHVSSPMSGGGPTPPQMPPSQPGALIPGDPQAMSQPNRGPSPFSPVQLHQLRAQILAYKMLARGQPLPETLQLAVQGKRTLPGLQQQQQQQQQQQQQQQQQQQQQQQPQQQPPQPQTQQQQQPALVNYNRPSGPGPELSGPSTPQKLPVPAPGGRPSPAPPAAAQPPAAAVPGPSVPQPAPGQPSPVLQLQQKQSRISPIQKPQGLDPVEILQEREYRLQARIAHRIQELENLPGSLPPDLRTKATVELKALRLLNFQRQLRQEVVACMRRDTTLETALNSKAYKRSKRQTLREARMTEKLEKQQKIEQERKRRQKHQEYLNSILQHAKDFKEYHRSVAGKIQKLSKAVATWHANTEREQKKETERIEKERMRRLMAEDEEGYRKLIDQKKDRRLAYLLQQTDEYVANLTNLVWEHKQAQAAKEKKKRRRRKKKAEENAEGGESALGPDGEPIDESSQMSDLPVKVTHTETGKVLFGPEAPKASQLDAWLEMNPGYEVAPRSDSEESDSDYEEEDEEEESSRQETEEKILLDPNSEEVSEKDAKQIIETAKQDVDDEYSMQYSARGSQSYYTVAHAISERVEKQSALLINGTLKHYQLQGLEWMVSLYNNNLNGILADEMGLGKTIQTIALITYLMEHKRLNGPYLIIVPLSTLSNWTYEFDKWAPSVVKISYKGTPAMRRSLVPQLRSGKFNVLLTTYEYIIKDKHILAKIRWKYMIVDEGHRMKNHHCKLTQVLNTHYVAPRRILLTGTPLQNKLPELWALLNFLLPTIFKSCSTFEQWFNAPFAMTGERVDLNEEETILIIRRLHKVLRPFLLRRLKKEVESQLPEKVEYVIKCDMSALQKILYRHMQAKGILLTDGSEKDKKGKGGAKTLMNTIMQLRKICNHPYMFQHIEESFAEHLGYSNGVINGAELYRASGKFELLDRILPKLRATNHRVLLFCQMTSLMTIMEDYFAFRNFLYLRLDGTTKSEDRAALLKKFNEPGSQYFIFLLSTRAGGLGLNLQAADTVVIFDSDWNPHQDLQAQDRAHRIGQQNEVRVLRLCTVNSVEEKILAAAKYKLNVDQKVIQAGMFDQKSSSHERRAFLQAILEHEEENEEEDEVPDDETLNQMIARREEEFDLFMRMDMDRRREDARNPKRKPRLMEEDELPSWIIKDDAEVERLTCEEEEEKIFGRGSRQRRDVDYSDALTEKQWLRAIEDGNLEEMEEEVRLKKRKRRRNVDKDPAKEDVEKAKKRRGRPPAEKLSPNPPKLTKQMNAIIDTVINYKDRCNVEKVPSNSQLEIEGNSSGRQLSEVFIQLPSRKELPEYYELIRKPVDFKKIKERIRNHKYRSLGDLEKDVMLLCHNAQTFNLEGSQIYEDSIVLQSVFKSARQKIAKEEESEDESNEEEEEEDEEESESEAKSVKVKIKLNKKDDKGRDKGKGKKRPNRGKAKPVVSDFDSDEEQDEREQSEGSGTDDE

As to `Cc1ncsc1-c1ccc([C@H](C)NC(=O)[C@@H]2C[C@@H](O)CN2C(=O)[C@@H](c2cc(N3CC4(CC(c5ccc6nnc(-c7ccccc7O)cc6c5)C4)C3)no2)C(C)C)cc1` [Compound 48, (2S,4R)-4-hydroxy-1-((R)-2-(3-(6-(3-(2-hydroxyphenyl)cinnolin-6-yl)-2-azaspiro[3.3]heptan-2-yl)isoxazol-5-yl)-3-methylbutanoyl)-N-((S)-1-(4-(4-methylthiazol-5-yl)phenyl)ethyl)pyrrolidine-2-carboxamide], in experiment [1], the DC50 was less than 10 nM and the “BRM HiBit Degradation Maximum (%)” value is “A (“A” indicates maximum degradation ≥75%)”. For the same compound, in experiment [2], the DC50 was less than 10 nM and the Dmax is greater than 75%.
Consider `Cc1ncsc1-c1ccc([C@H](C)NC(=O)[C@@H]2C[C@@H](O)CN2C(=O)[C@@H](c2cc(-c3cnc(N4CC[C@H](c5ccc6nnc(-c7ccccc7O)cc6c5)C4)nc3)no2)C(C)C)cc1` [Compound 49, (2S,4R)-4-hydroxy-1-((R)-2-(3-(2-((R)-3-(3-(2-hydroxyphenyl)cinnolin-6-yl)pyrrolidin-1-yl)pyrimidin-5-yl)isoxazol-5-yl)-3-methylbutanoyl)-N-((S)-1-(4-(4-methylthiazol-5-yl)phenyl)ethyl)pyrrolidine-2-carboxamide], for which, in experiment [1], the DC50 was less than 10 nM and the “BRM HiBit Degradation Maximum (%)” value is on record as “A (“A” indicates maximum degradation ≥75%)”. Further, in experiment [2], the DC50 is less than 10 nM and the Dmax was greater than 75%.
Take `CNC(=O)[C@@H]1C[C@@H](O)CN1C(=O)[C@@H](c1cc(N2CC3(CN(c4ccc5nnc(-c6ccccc6O)cc5c4)C3)C2)no1)C(C)C` [Compound 181, (2S,4R)-4-hydroxy-1-((R)-2-(3-(6-(3-(2-hydroxyphenyl)cinnolin-6-yl)-2,6-diazaspiro[3.3]heptan-2-yl)isoxazol-5-yl)-3-methylbutanoyl)-N-methylpyrrolidine-2-carboxamide]: in experiment [1], the DC50 was greater than 100 nM and the “BRM HiBit Degradation Maximum (%)” value is given as “A (“A” indicates maximum degradation ≥75%)”. Besides, the Dmax in experiment [2] was less than 50%.
On the same counts, the results for `Cc1ncsc1-c1ccc([C@H](C)NC(=O)[C@@H]2C[C@@H](O)CN2C(=O)[C@@H](c2cc(N3CC4(CN(c5ccc6cc(-c7cccc(F)c7O)nnc6c5)C4)C3)no2)C(C)C)cc1` [Compound 246, (2S,4R)-1-((R)-2-(3-(6-(3-(3-fluoro-2-hydroxyphenyl)cinnolin-7-yl)-2,6-diazaspiro[3.3]heptan-2-yl)isoxazol-5-yl)-3-methylbutanoyl)-4-hydroxy-N-((S)-1-(4-(4-methylthiazol-5-yl)phenyl)ethyl)pyrrolidine-2-carboxamide] are less than 10 nM, “A (“A” indicates maximum degradation ≥75%)” and less than 50%.
With `Cc1ncsc1-c1ccc([C@H](C)NC(=O)[C@@H]2C[C@@H](O)CN2C(=O)[C@@H](c2cc(N3CC4(CC(c5cc6nnc(-c7ccccc7O)cc6cc5Cl)C4)C3)no2)C(C)C)cc1` [Compound 220, (2S,4R)-1-((R)-2-(3-(6-(6-chloro-3-(2-hydroxyphenyl)cinnolin-7-yl)-2-azaspiro[3.3]heptan-2-yl)isoxazol-5-yl)-3-methylbutanoyl)-4-hydroxy-N-((S)-1-(4-(4-methylthiazol-5-yl)phenyl)ethyl)pyrrolidine-2-carboxamide], in experiment [1], the DC50 was less than 10 nM and the “BRM HiBit Degradation Maximum (%)” value was “A (“A” indicates maximum degradation ≥75%)”. In addition, in experiment [2], the DC50 is greater than 10 nM and the Dmax is greater than 75%.
Take `Cc1ncsc1-c1ccc([C@H](C)NC(=O)[C@@H]2C[C@@H](O)CN2C(=O)[C@H](C(C)C)n2cc(-c3ccc4nnc(-c5cccc(F)c5O)cc4c3)nn2)cc1` [Compound 150, (2S,4R)-1-((S)-2-(4-(3-(3-fluoro-2-hydroxyphenyl)cinnolin-6-yl)-1H-1,2,3-triazol-1-yl)-3-methylbutanoyl)-4-hydroxy-N-((S)-1-(4-(4-methylthiazol-5-yl)phenyl)ethyl)pyrrolidine-2-carboxamide]: in experiment [1], the DC50 is less than 10 nM and the “BRM HiBit Degradation Maximum (%)” value is “A (“A” indicates maximum degradation ≥75%)”. In addition, in experiment [2], the DC50 is less than 10 nM and the Dmax was greater than 75%.
Regarding `Cc1ncsc1-c1ccc([C@H](C)NC(=O)[C@@H]2C[C@@H](O)CN2C(=O)[C@@H](c2cc(-c3cnc(N4CC5(CN(c6ccc7nnc(-c8ccccc8O)cc7c6)C5)C4)nc3)no2)C(C)C)cc1` [Compound 243, (2S,4R)-4-hydroxy-1-((R)-2-(3-(2-(6-(3-(2-hydroxyphenyl)cinnolin-6-yl)-2,6-diazaspiro[3.3]heptan-2-yl)pyrimidin-5-yl)isoxazol-5-yl)-3-methylbutanoyl)-N-((S)-1-(4-(4-methylthiazol-5-yl)phenyl)ethyl)pyrrolidine-2-carboxamide], in experiment [1], the DC50 was less than 10 nM and the “BRM HiBit Degradation Maximum (%)” value is reported as “A (“A” indicates maximum degradation ≥75%)”. Moreover, in experiment [2], the DC50 was less than 10 nM and the Dmax was greater than 75%.
For `CC(C)C(C(=O)N1C[C@H](O)C[C@H]1C(=O)NCC12CC(C1)C2)c1cc(N2CC3(CN(c4ccc5cc(-c6ccccc6O)nnc5c4)C3)C2)no1` (stereo partly drawn) [Compound 119, (2S,4R)-N-(bicyclo[1.1.1]pentan-1-ylmethyl)-4-hydroxy-1-(2-(3-(6-(3-(2-hydroxyphenyl)cinnolin-7-yl)-2,6-diazaspiro[3.3]heptan-2-yl)isoxazol-5-yl)-3-methylbutanoyl)pyrrolidine-2-carboxamide], in experiment [1], the DC50 is greater than 10 nM and the “BRM HiBit Degradation Maximum (%)” value is reported as “A (“A” indicates maximum degradation ≥75%)”. Besides, the Dmax in experiment [2] is less than 50%.
On the same counts, the results for `Cc1ncsc1-c1ccc([C@H](C)NC(=O)[C@@H]2C[C@@H](O)CN2C(=O)[C@@H](c2cc(N3CC4(CN(Cc5ccc6nnc(-c7ccccc7O)cc6c5)C4)C3)no2)C(C)C)cc1` [Compound 245, (2S,4R)-4-hydroxy-1-((R)-2-(3-(6-((3-(2-hydroxyphenyl)cinnolin-6-yl)methyl)-2,6-diazaspiro[3.3]heptan-2-yl)isoxazol-5-yl)-3-methylbutanoyl)-N-((S)-1-(4-(4-methylthiazol-5-yl)phenyl)ethyl)pyrrolidine-2-carboxamide] are greater than 10 nM, “B (“B” indicates maximum degradation ≥50%)” and less than 50%.
On the same counts, the results for `COC[C@@H]1CN(c2cc([C@H](C(=O)N3C[C@H](O)C[C@H]3C(=O)N[C@@H](C)c3ccc(-c4scnc4C)cc3)C(C)C)on2)CCN1c1ccc2cc(-c3ccccc3O)nnc2c1` [Compound 196, (2S,4R)-4-hydroxy-1-((R)-2-(3-((S)-4-(3-(2-hydroxyphenyl)cinnolin-7-yl)-3-(methoxymethyl)piperazin-1-yl)isoxazol-5-yl)-3-methylbutanoyl)-N-((S)-1-(4-(4-methylthiazol-5-yl)phenyl)ethyl)pyrrolidine-2-carboxamide] are greater than 10 nM, “B (“B” indicates maximum degradation ≥50%)” and less than 50%.
On the same counts, the results for `Cc1ncsc1-c1ccc([C@H](C)NC(=O)[C@@H]2C[C@@H](O)CN2C(=O)[C@H](c2cc(N3CCC4(CC3)CC(c3ccc5cc(-c6ccccc6O)nnc5c3)C4)no2)C(C)C)cc1` [Compound 25] are greater than 100 nM, “B (“B” indicates maximum degradation ≥50%)” and less than 50%.
As to `Cc1ncsc1-c1ccc([C@H](C)NC(=O)[C@@H]2C[C@@H](O)CN2C(=O)[C@@H](c2cc(C3CC4(C3)CN(c3ccc5nnc(-c6ccccc6O)cc5c3)C4)no2)C(C)C)cc1` (single isomer, unassigned) [Compound 200], in experiment [1], the DC50 is less than 10 nM and the “BRM HiBit Degradation Maximum (%)” value is reported as “A (“A” indicates maximum degradation ≥75%)”. Besides, in experiment [2], the DC50 was less than 10 nM and the Dmax was greater than 75%.
For the compound `Cc1ncsc1-c1ccc([C@H](C)NC(=O)[C@@H]2C[C@@H](O)CN2C(=O)[C@@H](c2cc(N3CCC4(CCC(c5ccc6cc(-c7ccccc7O)nnc6c5)CC4)CC3)no2)C(C)C)cc1` [Compound 96, (2S,4R)-4-hydroxy-1-((R)-2-(3-(9-(3-(2-hydroxyphenyl)cinnolin-7-yl)-3-azaspiro[5.5]undecan-3-yl)isoxazol-5-yl)-3-methylbutanoyl)-N-((S)-1-(4-(4-methylthiazol-5-yl)phenyl)ethyl)pyrrolidine-2-carboxamide], in experiment [1], the DC50 was less than 10 nM and the “BRM HiBit Degradation Maximum (%)” value was “A (“A” indicates maximum degradation ≥75%)”. Further, in experiment [2], the DC50 is greater than 10 nM and the Dmax was greater than 75%.
Regarding `Cc1ncsc1-c1ccc([C@H](C)NC(=O)[C@@H]2C[C@@H](O)CN2C(=O)[C@@H](c2cccc(N3CC4(C3)CN(c3ccc5cc(-c6ccccc6O)nnc5c3)C4)c2)C(C)C)cc1` [Compound 174, (2S,4R)-4-hydroxy-1-((R)-2-(3-(6-(3-(2-hydroxyphenyl)cinnolin-7-yl)-2,6-diazaspiro[3.3]heptan-2-yl)phenyl)-3-methylbutanoyl)-N—((S)-1-(4-(4-methylthiazol-5-yl)phenyl)ethyl)pyrrolidine-2-carboxamide], in experiment [1], the DC50 was greater than 10 nM and the “BRM HiBit Degradation Maximum (%)” value is on record as “A (“A” indicates maximum degradation ≥75%)”. Further, the Dmax in experiment [2] is less than 50%.
